Source: US20260226103A1, “MODIFIED AMINO ACIDS AND USES THEREOF” (priority 2022, published 2026)
Square brackets hold non-standard residues; d marks the D form. Peptide text beside a SMILES is read from it. * marks the point of attachment. X1 = O=C(O)c1cc(NC(=S)*)ccc1-c1c2ccc(=O)cc-2oc2cc(O)ccc12; aIle = CC[C@@H](C)[C@H](N)C(=O)O; dCit = NC(=O)NCCC[C@@H](N)C(=O)O; X2 = N=C(N)c1ccc(C(=O)*)cc1; Dap = NC[C@H](N)C(=O)O; Ahx = NCCCCCC(=O)O; βAla = NCCC(=O)O

Key:
HeLa cells [1] = test: Cell uptake of FITC-peptides by flow cytometry; assay type: cell-based; settings: for time of maximum uptake: 37° C., 1 hr vs 4 hr
Procedure: (§2) HeLa and U2OS cells were maintained in medium consisting of Dulbecco's modified Eagle's medium (DMEM), 10% FBS, 1% L-Glutamine and 1% penicillin/streptomycin at pH 7.4. […] Cells were cultured in a humidified incubator at 37° C. with 5% CO2 atmosphere.
HeLa or U2OS cells were cultured in 24 well plates (4.5×10^5 cells per well) for 24 h. On the day of the experiment, the cells were incubated with 5 μM FITC-peptide in DMEM with 10% FBS at 37° C. or 4° C. for required time. The media was then removed and wells were washed with PBS (2×500 μL per well) and then detached from the plate with TrypLE Xpress (500 μL per well). PBS containing 2% bovine serum albumin (500 μL) was added to each well and cells transferred to 5 mL polystyrene FACS tubes. Cells were centrifuged (5 min, 5000 rpm) and washed with PBS containing 2% bovine serum albumin (2×500 μL) before being suspended in PBS containing 2% bovine serum albumin (1.00 mL per FACS tube).
(§3) Cells were finally analysed on a Thermo fisher Attune NxT flow cytometer with laser excitation/emission set at 490 nm/519 nm and a flow rate of 200 μL min^−1. Flow cytometry data was analysed using FlowJo software with gating set at a range of 51K-285K side scatter and 251K-815K for forward scatter variance for every sample. Median fluorescence intensity values were calculated from the gating range using FlowJo.
(§4) Median fluorescence values reported were normalised by subtracting average background fluorescence at 490 nm/519 nm of a set of untreated cells (ran with every experiment) from the value of each FITC labelled peptide.

U2OS cells = settings: U2OS cell line
Procedure: as §2
HeLa or U2OS cells were cultured in 24 well plates (4.5×10^5 cells per well) for 24 h. On the day of the experiment, the cells were incubated with 5 μM FITC-peptide in DMEM with 10% FBS at 37° C. or 4° C. for required time. The media was then removed and wells were washed with PBS (2×500 μL per well) and then detached from the plate with TrypLE Xpress (500 μL per well). PBS containing 2% bovine serum albumin (500 μL) was added to each well and cells transferred to 5 mL polystyrene FACS tubes. […]
as §3, §4

HeLa cells [2] = test: Cellular distribution by confocal microscopy; assay type: cell-based; settings: 5 μM fluorescein-tagged CPP, 4 h
Procedure: HeLa cells were cultured in 8 well plates (Ibidi plates) (3.5×10^4 cells per well) for 24 h. […] After 3.5 h incubation, Hoescht 33258 was added at a concentration of 5.6 μM and cells incubated at 37° C. for the final 0.5 h. Cells were removed from the incubator and media removed. Each well was then washed with serum and phenol red free media (2×200 μL) then incubated with 4% formaldehyde in PBS (200 μL) for 20 min at room temperature. After incubation the 4% formaldehyde solution was removed and PBS (200 μL) added to each well. The cells were then imaged using a Leica S8 confocal microscope. Excitation/emission was set at 352 nm/461 nm for Hoescht 33258 imaging and 495 nm/519 nm for FITC labelled peptides. Images were processed using ImageJ software. Images were ‘rolling ball’ averaged across the set for each channel to remove background fluorescence.

HeLa cells [3] = test: Cell viability AlamarBlue assay; assay type: cell-based; settings: for cytotoxicity / tolerability (in words): HeLa cells, at or up to 100 μM
Procedure: (§1) HeLa, U2OS or HepG2 cells were cultured in 96 well plates (2.6×10^3 cells per well) for 24 h. […] The experiments were performed in triplicate for each concentration. AlamarBlue® was then added to each well (0.5 mM, 10 μL, 10% v/v) and incubated for a further 6 h for HeLa and HepG2 cells and 24 h for U2OS cells. Cells were then analysed using a HIdex plate reader with laser excitation/emission set at 560 nm/595 nm. Fluorescence of untreated cells were used as a 100% viable control, with 1% Triton X used as a negative control, and viability of cells were calculated as a percentage of the control fluorescence values using OriginPro 2019b software.

[4] = Cell viability AlamarBlue assay; assay type: cell-based; settings: human, HeLa cells, 24 h
Procedure: as §1

[5] = pH of 7.4; cited from earlier work

Row | Compound | cellular distribution profile (in words) (HeLa cells [2]) | cytotoxicity / tolerability (in words) (HeLa cells [3]) | cell uptake relative to TP-2 (in words) (HeLa cells [1]; 5 μM FITC-peptide) | other results
1 | CC[C@@H](C)[C@H](NC(=O)[C@H](CC(C)C)NC(=O)[C@@H]1CCCN1C(=O)CCCCCNC(=S)Nc1ccc(-c2c3ccc(=O)cc-3oc3cc(O)ccc23)c(C(=O)O)c1)C(=O)N[C@@H](Cc1ccc(O)cc1)C(=O)N[C@@H](CC(C)C)C(=O)N[C@@H](CNC(=O)c1ccc(C(=N)N)cc1)C(=O)N[C@@H](CC(C)C)C(=O)N[C@@H](CC(C)C)C(=O)N[C@@H](CNC(=O)c1ccc(C(=N)N)cc1)C(=O)NCC(N)=O [Am-TP-2, FITC-XPLIYLAmLLAmG] ({X1-Ahx}-PL[aIle]YL[Dap](X2)LL[Dap](X2)G-NH2) | cytoplasmic distribution profile |  |  | decrease in cellular uptake at 4° C. relative to 37° C. (HeLa cells [1]): 30 fold; uptake at 4 hr incubation relative to 1 hr (in words) (HeLa cells [1]): enhanced uptake; increase in uptake relative to TP-2 (HeLa cells [1]; 5 μM FITC-peptide): 4 fold; uptake trend (in words) (U2OS cells): enhanced uptake
2 | CC(C)C[C@H](NC(=O)[C@H](CC(C)C)NC(=O)[C@H](CCCNC(=N)N)NC(=O)[C@H](CCCNC(=N)N)NC(=O)[C@H](CC(C)C)NC(=O)[C@H](CC(C)C)NC(=O)[C@H](CCCNC(=N)N)NC(=O)CCCCCNC(=S)Nc1ccc(-c2c3ccc(=O)cc-3oc3cc(O)ccc23)c(C(=O)O)c1)C(=O)N[C@@H](CCCNC(=N)N)C(N)=O [Pep-2, FITC-XRLLRRLLR] (HELM PEPTIDE1{[O=C(O)c1cc(NC(=S)[*:2])ccc1-c1c2ccc(=O)cc-2oc2cc(O)ccc12].[O=C(CCCCCN[*:1])[*:2]].R.L.L.R.R.L.L.R.[am]}$$$$V2.0) |  |  |  | cytotoxicity relative to Pep-1 (in words) (HeLa cells [3]; at 100 M (so in the source)): displaying cytotoxicity
3 | CC[C@H](C)[C@H](NC(=O)[C@H](CC(C)C)NC(=O)[C@H](Cc1ccccc1)NC(=O)[C@H](CCC(N)=O)NC(=O)[C@H](Cc1ccc(O)cc1)NC(=O)[C@H](CCCNC(=N)N)NC(=O)[C@H](CCCNC(=N)N)NC(=O)CCNC(=O)[C@H](CCCNC(=N)N)NC(=O)[C@H](CCCNC(=N)N)NC(=O)CCCCCNC(=O)[C@H](CCCNC(=N)N)NC(=O)CCCCCNC(=S)Nc1ccc(-c2c3ccc(=O)cc-3oc3cc(O)ccc23)c(C(=O)O)c1)C(=O)N[C@@H](CCCNC(=N)N)C(=O)NCCC(=O)N[C@@H](CCCNC(=N)N)C(=O)NCCCCCC(=O)N[C@@H](CCCNC(=N)N)C(N)=O [PiP6, FITC-XRXRRBRRYQFLIRBRXR] ({X1-Ahx}-R[Ahx]RR[βAla]RRYQFLIR[βAla]R[Ahx]R-NH2) | high level of accumulation within the nucleus |  |  | time of maximum uptake (HeLa cells [1]; 5 μM FITC-peptide): 1 h; viability at 24 h, 30 µM ([4]; 30 μM FITC-peptide): 15%; viability at 24 h, 100 µM ([4]; 100 μM FITC-peptide): 5%
4 | CC[C@@H](C)[C@H](NC(=O)[C@H](CC(C)C)NC(=O)[C@@H]1CCCN1C(=O)CCCCCNC(=S)Nc1ccc(-c2c3ccc(=O)cc-3oc3cc(O)ccc23)c(C(=O)O)c1)C(=O)N[C@@H](CC(C)C)C(=O)N[C@@H](CC(C)C)C(=O)N[C@@H](CCCNC(=N)N)C(=O)N[C@@H](CC(C)C)C(=O)N[C@@H](CC(C)C)C(=O)N[C@@H](CCCNC(=N)N)C(=O)NCC(N)=O [TP-1, FITC-XPLILLRLLRG] ({X1-Ahx}-PL[aIle]LLRLLRG-NH2) | extensively distributed throughout the cytoplasm | well tolerated |  | 
5 | CC[C@@H](C)[C@H](NC(=O)[C@H](CC(C)C)NC(=O)[C@@H]1CCCN1C(=O)CCCCCNC(=S)Nc1ccc(-c2c3ccc(=O)cc-3oc3cc(O)ccc23)c(C(=O)O)c1)C(=O)N[C@@H](Cc1ccc(O)cc1)C(=O)N[C@@H](CC(C)C)C(=O)N[C@@H](CCCNC(=N)N)C(=O)N[C@@H](CC(C)C)C(=O)N[C@@H](CC(C)C)C(=O)N[C@@H](CCCNC(=N)N)C(=O)NCC(N)=O [TP-2, FITC-XPLIYLRLLRG] ({X1-Ahx}-PL[aIle]YLRLLRG-NH2) | extensively distributed throughout the cytoplasm | well tolerated |  | 
6 | CC[C@@H](C)[C@H](NC(=O)[C@H](CC(C)C)NC(=O)[C@@H]1CCCN1C(=O)CCCCCNC(=S)Nc1ccc(-c2c3ccc(=O)cc-3oc3cc(O)ccc23)c(C(=O)O)c1)C(=O)N[C@@H](Cc1ccc(O)cc1)C(=O)N[C@@H](CC(C)C)C(=O)N[C@H](CCCCN)C(=O)N[C@@H](CC(C)C)C(=O)N[C@@H](CC(C)C)C(=O)N[C@H](CCCCN)C(=O)NCC(N)=O [TP-3, FITC-XPLIYLKLLKG] ({X1-Ahx}-PL[aIle]YL[dK]LL[dK]G-NH2) |  |  | no difference in cell uptake | 
7 | CC[C@@H](C)[C@H](NC(=O)[C@H](CC(C)C)NC(=O)[C@@H]1CCCN1C(=O)CCCCCNC(=S)Nc1ccc(-c2c3ccc(=O)cc-3oc3cc(O)ccc23)c(C(=O)O)c1)C(=O)N[C@@H](Cc1ccc(O)cc1)C(=O)N[C@@H](CC(C)C)C(=O)N[C@H](CCCNC(N)=O)C(=O)N[C@@H](CC(C)C)C(=O)N[C@@H](CC(C)C)C(=O)N[C@H](CCCNC(N)=O)C(=O)NCC(N)=O [TP-4, FITC-XPLIYLCitLLCitG] ({X1-Ahx}-PL[aIle]YL[dCit]LL[dCit]G-NH2) |  |  | reduction in cellular uptake | 
8 | CC[C@@H](C)[C@H](NC(=O)[C@H](CC(C)C)NC(=O)[C@@H]1CCCN1C(=O)CCCCCNC(=S)Nc1ccc(-c2c3ccc(=O)cc-3oc3cc(O)ccc23)c(C(=O)O)c1)C(=O)N[C@@H](Cc1ccc(O)cc1)C(=O)N[C@@H](CC(C)C)C(=O)N[C@H](CCCNC(=N)N)C(=O)N[C@@H](CC(C)C)C(=O)N[C@@H](CC(C)C)C(=O)N[C@H](CCCNC(=N)N)C(=O)NCC(N)=O [TP-5, FITC-XPLIYLrLLrG] ({X1-Ahx}-PL[aIle]YL[dR]LL[dR]G-NH2) |  |  | further reduction in uptake | cell uptake relative to TP peptides containing L-Arg (TP-1 and TP-2) (in words) (HeLa cells [1]; 5 μM FITC-peptide): enhanced uptake
9 | N=C(N)NCCC[C@H](NC(=O)[C@H](CCCNC(=N)N)NC(=O)[C@H](CCCNC(=N)N)NC(=O)[C@H](CCC(N)=O)NC(=O)[C@H](CCCNC(=N)N)NC(=O)[C@H](CCCNC(=N)N)NC(=O)[C@H](CCCCN)NC(=O)[C@H](CCCCN)NC(=O)[C@H](CCCNC(=N)N)NC(=O)CCCCCNC(=S)Nc1ccc(-c2c3ccc(=O)cc-3oc3cc(O)ccc23)c(C(=O)O)c1)C(N)=O [Tat, FITC-XRKKRRQRRR] | accumulating in puncta | moderate levels of toxicity |  | time of maximum uptake (HeLa cells [1]; 5 μM FITC-peptide): 1 h
10 | N=C(N)NCCC[C@H](N)C(=O)O [arginine] |  |  |  | Log D or c Log D [5]: approximately −3.5
